Assay results as given in US11331299B2, “Medicinal use of serrulatane diterpenes” (The University of Sydney, priority 2016, dated 2022).
Read-outs that look alike come from different tables or passages of the source.

Tested on: 280 human cancer cell lines
Test: OncoPanel cell proliferation assay (10-day)
Assay type: cell-based
Conditions: for EC50: read-out: Cell Count EC50; for IC50: read-out: Cell Count IC50
[1] = Homo sapiens, 22Rv1, 22Rv1, Prostate
[2] = Homo sapiens, 786-0, 786-O, Kidney
[3] = Homo sapiens, A7, Skin (Melanoma)
[4] = Homo sapiens, A101D, Skin (Melanoma)
[5] = Homo sapiens, A 172, A172, CNS - Glioma
[6] = Homo sapiens, A253, A-253, Head and Neck
[7] = Homo sapiens, A388, Head and Neck
[8] = Homo sapiens, A498, A498, Kidney
[9] = Homo sapiens, A673, A-673, Soft Tissue - Sarcoma
[10] = Homo sapiens, A704, A-704, Kidney
[11] = Homo sapiens, A-375, A375, Skin (Melanoma)
[12] = Homo sapiens, A-427, A427, Lung - NSCLC
[13] = Homo sapiens, A-431, A431, Head and Neck
[14] = Homo sapiens, AN3-CA, AN3 CA, Female GU - Uterus
[15] = Homo sapiens, ARH-77, ARH-77, Myeloma
[16] = Homo sapiens, ASPC1, AsPC-1, Pancreas
[17] = Homo sapiens, AU565, AU565, Breast
[18] = Homo sapiens, BCP-1, BCP-1, Lymphoma
[19] = Homo sapiens, BE(2)-C, BE(2)C, CNS - Neuroblastoma
[20] = Homo sapiens, BFTC-905, BFTC-905, Bladder
[21] = Homo sapiens, BHT-101, BHT-101, Endocrine - Thyroid
[22] = Homo sapiens, BM-1604, BM-1604, Prostate
[23] = Homo sapiens, BPH-1, BPH1, Prostate
[24] = Homo sapiens, BT-20, BT20, Breast

**Q.** Which results are given for `CC(C)=CCC[C@@H]1C(O)Oc2c(C)cc(O)c3c2[C@H]1CC[C@H]3C` (stereo partly shown) [Compound 2, 5,18-epoxyserrulat-14-en-8,18-diol]?
**A.** Number of cell types, GI Activity Potent (GI50 range 0.03-0.099 μM, of 280 cell types): 1; Number of cell types, GI Activity moderately potent (GI50 range 0.1-0.99 μM, of 280 cell types): 1; Number of cell types, GI Activity Strong (GI50 range 1-2.99 μM, of 280 cell types): 8; Number of cell types, GI Activity moderately strong (GI50 range 3-9.99 μM, of 280 cell types): 110; Number of cell types, GI Activity weak (GI50 range 10-30.00 μM, of 280 cell types): 118; Number of cell types, GI Activity very weak (GI50 range >30 μM, of 280 cell types): 42; GI50 (Homo sapiens, 10 cell lines with potent to strong activity, read-out: GI50): 0.06 to 2.96 µM; EC50 [1]: 11.4 µM; GI50 (Homo sapiens, 22Rv1, 22Rv1, Prostate, read-out: Cell Count GI50): 11.3 µM; IC50 [1]: 11.4 µM; EC50 (Homo sapiens, 647-V, Bladder): 11.3 µM; GI50 (Homo sapiens, 647-V, Bladder, read-out: Cell Count GI50): 11.2 µM; IC50 (Homo sapiens, 647-V, Bladder): 11.3 µM; EC50 (Homo sapiens, 769-P, Kidney): 6.95 µM; GI50 (Homo sapiens, 769-P, Kidney, read-out: Cell Count GI50): 6.94 µM; IC50 (Homo sapiens, 769-P, Kidney): 6.95 µM; EC50 [2]: 27.9 µM; GI50 (Homo sapiens, 786-0, 786-O, Kidney, read-out: Cell Count GI50): 27.9 µM; IC50 [2]: 27.9 µM; EC50 (Homo sapiens, 5637, Bladder): > 30 µM; GI50 (Homo sapiens, 5637, Bladder, read-out: Cell Count GI50): > 30 µM; IC50 (Homo sapiens, 5637, Bladder): > 30 µM; EC50 [3]: 5.54 µM; GI50 (Homo sapiens, A7, Skin (Melanoma), read-out: Cell Count GI50): 5.6 µM; IC50 [3]: 5.63 µM; EC50 [4]: > 30 µM; GI50 (Homo sapiens, A101D, Skin (Melanoma), read-out: Cell Count GI50): > 30 µM; IC50 [4]: > 30 µM; EC50 [5]: 9.02 µM; GI50 (Homo sapiens, A 172, A172, CNS - Glioma, read-out: Cell Count GI50): 8.93 µM; IC50 [5]: 9.02 µM; EC50 [6]: 28.5 µM; GI50 (Homo sapiens, A253, A-253, Head and Neck, read-out: Cell Count GI50): 28.7 µM; IC50 [6]: 28.7 µM; EC50 [7]: 13.5 µM; GI50 (Homo sapiens, A388, Head and Neck, read-out: Cell Count GI50): 13.4 µM; IC50 [7]: 13.5 µM; EC50 [8]: 13.3 µM; GI50 (Homo sapiens, A498, A498, Kidney, read-out: Cell Count GI50): 13.2 µM; IC50 [8]: 13.3 µM; EC50 (Homo sapiens, A549, A549, Lung - NSCLC): 22 µM; GI50 (Homo sapiens, A549, A549, Lung - NSCLC, read-out: Cell Count GI50): 21.9 µM; EC50 [9]: 10.8 µM; GI50 (Homo sapiens, A673, A-673, Soft Tissue - Sarcoma, read-out: Cell Count GI50): 11.1 µM; IC50 [9]: 11.1 µM; EC50 [10]: > 30 µM; GI50 (Homo sapiens, A704, A-704, Kidney, read-out: Cell Count GI50): > 30 µM; IC50 [10]: > 30 µM; EC50 [11]: 6.45 µM; GI50 (Homo sapiens, A-375, A375, Skin (Melanoma), read-out: Cell Count GI50): 6.44 µM; IC50 [11]: 6.45 µM; EC50 [12]: 11.2 µM; GI50 (Homo sapiens, A-427, A427, Lung - NSCLC, read-out: Cell Count GI50): 11.2 µM; IC50 [12]: 11.2 µM; EC50 [13]: > 30 µM; GI50 (Homo sapiens, A-431, A431, Head and Neck, read-out: Cell Count GI50): > 30 µM; IC50 [13]: > 30 µM; EC50 (Homo sapiens, ACHN, Kidney): 8.79 µM; GI50 (Homo sapiens, ACHN, Kidney, read-out: Cell Count GI50): 8.76 µM; IC50 (Homo sapiens, ACHN, Kidney): 8.79 µM; EC50 (Homo sapiens, AGS, Stomach): 4.69 µM; GI50 (Homo sapiens, AGS, Stomach, read-out: Cell Count GI50): 4.69 µM; IC50 (Homo sapiens, AGS, Stomach): 4.69 µM; EC50 [14]: 11.3 µM; GI50 (Homo sapiens, AN3-CA, AN3 CA, Female GU - Uterus, read-out: Cell Count GI50): 11.1 µM; IC50 [14]: 11.3 µM; EC50 [15]: 9.5 µM; GI50 (Homo sapiens, ARH-77, ARH-77, Myeloma, read-out: Cell Count GI50): 9.57 µM; IC50 [15]: 9.6 µM; EC50 [16]: 14.1 µM; GI50 (Homo sapiens, ASPC1, AsPC-1, Pancreas, read-out: Cell Count GI50): 13.8 µM; IC50 [16]: 14.1 µM; EC50 [17]: 6.4 µM; GI50 (Homo sapiens, AU565, AU565, Breast, read-out: Cell Count GI50): 6.29 µM; IC50 [17]: 6.4 µM; EC50 (Homo sapiens, BC-1, Lymphoma): 7.95 µM; GI50 (Homo sapiens, BC-1, Lymphoma, read-out: Cell Count GI50): 7.93 µM; IC50 (Homo sapiens, BC-1, Lymphoma): 7.95 µM; EC50 [18]: 8.48 µM; GI50 (Homo sapiens, BCP-1, BCP-1, Lymphoma, read-out: Cell Count GI50): 8.4 µM; IC50 [18]: 8.48 µM; EC50 [19]: 6.91 µM; GI50 (Homo sapiens, BE(2)-C, BE(2)C, CNS - Neuroblastoma, read-out: Cell Count GI50): 7.48 µM; IC50 [19]: 7.52 µM; EC50 [20]: 8.03 µM; GI50 (Homo sapiens, BFTC-905, BFTC-905, Bladder, read-out: Cell Count GI50): 8.01 µM; IC50 [20]: 8.03 µM; EC50 [21]: 14 µM; GI50 (Homo sapiens, BHT-101, BHT-101, Endocrine - Thyroid, read-out: Cell Count GI50): 13.9 µM; IC50 [21]: 14 µM; EC50 [22]: 19.1 µM; GI50 (Homo sapiens, BM-1604, BM-1604, Prostate, read-out: Cell Count GI50): 18.9 µM; IC50 [22]: 19.1 µM; EC50 [23]: > 30 µM; GI50 (Homo sapiens, BPH-1, BPH1, Prostate, read-out: Cell Count GI50): > 30 µM; IC50 [23]: > 30 µM; EC50 [24]: 12.2 µM; GI50 (Homo sapiens, BT-20, BT20, Breast, read-out: Cell Count GI50): 12.3 µM; IC50 [24]: 12.7 µM; EC50 (Homo sapiens, BT-474, BT474, Breast): > 30 µM
